Measured values: patent publication US20260234136A1, “ISOXAZOLIDINES AS RIPK1 INHIBITORS AND USE THEREOF” (GENZYME CORPORATION, priority 2023, published 2026)
≈ marks a conversion by molar mass, not a printed value.

Legend:
physchem = settings: 50 mM phosphate buffer, 25 °C, pH 7.4, aqueous buffer, thermodynamic from solid
U937 cells = assay: Cellular assay in U937 cells to measure the activity of RIPK1-inhibitors on cell death (necroptosis); format: cell-based; settings: Homo sapiens, U-937, 50 μM zVAD.fmk and 100 ng/ml recombinant human TNFα, overnight (18 to 24 hrs), MTS readout
Procedure: Absorbance of formazan was read at 490 nm. The inhibitory activity of the test compound was quantified in a concentration response curve (CRC) experiment.
Compounds were obtained as 10 mM stock solutions and were diluted 1 to 10 volumes with DMSO to yield a 1 mM solution. From this solution 2 μl were diluted with 998 μl growth medium.
U937 cells were cultured in RPMI1640 Glutamax and 10% heat inactivated FBS. […] 50 μl of compound dilutions, as described in Cellular assay in U937 cells, were added and the cell suspension incubated overnight (18 to 24 hrs) at 37° C., 5% CO2 in a humidified atmosphere (95% rH).
CellTiter 96 Aqueous reagent was mixed (100 μl PMS (phenazine methosulfate) solution/2 ml MTS (3-(4,5-[…])-5-(3-carboxymethoxyphenyl)-2-(4-sulfophenyl)-2H-tetrazolium, inner salt) solution) and 20 μl were added per well. After 4 hrs incubation at 37° C. (5% CO2 95% rH) optical density was measured at 490 nm on a microplate reader (Tecan Infinite M1000).
The % inhibition is expressed as percentage of the maximal inhibition value obtained in the absence of TNFα/zVAD.fmc.

SMILES | solubility at 16 h (physchem) [µM] | IC50 (U937 cells) [nM]
Cc1nc([C@@H]2CCON2C(=O)C2CCN(c3ncnc(-n4ccnc4C)n3)CC2)cs1 [Example 23, [1-[4-(2-methylimidazol-1-yl)-1,3,5-triazin-2-yl]-4-piperidyl]-[(3S)-3-(2-methylthiazol-4-yl)isoxazolidin-2-yl]methanone] | > 1140 | 1
Cn1nccc1-c1nccc(N2CCC(C(=O)N3OCC[C@H]3c3cnccn3)CC2)n1 [Example 24, [1-[2-(2-methylpyrazol-3-yl)pyrimidin-4-yl]-4-piperidyl]-[(3S)-3-pyrazin-2-ylisoxazolidin-2-yl]methanone] | > 1190 | 9
O=C(C1CCN(c2nc(-c3cncnc3)ncc2F)CC1)N1OCC[C@H]1c1cnccn1 [Example 25, [1-(5-fluoro-2-pyrimidin-5-yl-pyrimidin-4-yl)-4-piperidyl]-[(3S)-3-pyrazin-2-ylisoxazolidin-2-yl]methanone] | 69.2 (≈ 30.2 µg/mL) | 15
Cc1nccn1-c1nccc(N2CCC(C(=O)N3OCC[C@H]3c3cnccn3)CC2)n1 [Example 29, (S)-(1-(2-(2-methyl-1H-imidazol-1-yl)pyrimidin-4-yl)piperidin-4-yl)(3-(pyrazin-2-yl)isoxazolidin-2-yl)methanone] | > 1190 | 6
Cc1nccn1-c1ccnc(N2CCC(C(=O)N3OCC[C@H]3c3cnccn3)CC2)n1 [Example 30, (S)-(1-(4-(2-methyl-1H-imidazol-1-yl)pyrimidin-2-yl)piperidin-4-yl)(3-(pyrazin-2-yl)isoxazolidin-2-yl)methanone] | > 1190 | 3
Cc1nccn1-c1cc(N2CCC(C(=O)N3OCC[C@H]3c3cnccn3)CC2)ncn1 [Example 31, (S)-(1-(6-(2-methyl-1H-imidazol-1-yl)pyrimidin-4-yl)piperidin-4-yl)(3-(pyrazin-2-yl)isoxazolidin-2-yl)methanone] | > 1190 | 32
Cc1ccc([C@@H]2CCON2C(=O)C2CCN(c3nccc(-c4ncco4)n3)CC2)cn1 [Example 37, [(3S)-3-(6-methylpyridin-3-yl)-1,2-oxazolidin-2-yl]-[1-[4-(1,3-oxazol-2-yl)pyrimidin-2-yl]piperidin-4-yl]methanone] | 34.7 (≈ 14.6 µg/mL) | 41
Cc1ccc([C@@H]2CCON2C(=O)C2CCN(c3ncnc(-c4nccs4)n3)CC2)cn1 [Example 38, [(3S)-3-(6-methylpyridin-3-yl)-1,2-oxazolidin-2-yl]-[1-[4-(1,3-thiazol-2-yl)-1,3,5-triazin-2-yl]piperidin-4-yl]methanone] | 275 (≈ 120 µg/mL) | 51
Cc1nc([C@@H]2CCON2C(=O)C2CCN(c3cc(-c4ncnn4C)ncn3)CC2)cs1 [Example 40, [(3S)-3-(2-methyl-1,3-thiazol-4-yl)-1,2-oxazolidin-2-yl]-[1-[6-(2-methyl-1,2,4-triazol-3-yl)pyrimidin-4-yl]piperidin-4-yl]methanone] | 136 (≈ 60 µg/mL) | 40
Cc1ncc([C@@H]2CCON2C(=O)[C@@H]2CCN(c3cc(-c4ncnn4C)ncn3)CC23CC3)cc1F [Example 43, [(3S)-3-(5-fluoro-6-methylpyridin-3-yl)-1,2-oxazolidin-2-yl]-[(8R)-5-[6-(2-methyl-1,2,4-triazol-3-yl)pyrimidin-4-yl]-5-azaspiro[2.5]octan-8-yl]methanone] | > 1040 | 57
Cc1ccc([C@@H]2CCON2C(=O)[C@@H]2CCN(c3nccc(N4CCCC4=O)n3)CC23CC3)cn1 [Example 44, 1-[2-[(8R)-8-[(3S)-3-(6-methylpyridin-3-yl)-1,2-oxazolidine-2-carbonyl]-5-azaspiro[2.5]octan-5-yl]pyrimidin-4-yl]pyrrolidin-2-one] | 380 (≈ 176 µg/mL) | 25
Cc1ncc([C@@H]2CCON2C(=O)C2CCN(c3ncnc(-c4ccnn4C)n3)CC2)cc1F [Example 45, [(3S)-3-(5-fluoro-6-methylpyridin-3-yl)-1,2-oxazolidin-2-yl]-[1-[4-(2-methylpyrazol-3-yl)-1,3,5-triazin-2-yl]piperidin-4-yl]methanone] | 904 (≈ 409 µg/mL) | 1
O=C1CCCN1c1ccnc(N2CCC(C(=O)N3OCC[C@H]3c3cncc(F)c3)CC2)n1 [Example 46, 1-[2-[4-[(3S)-3-(5-fluoropyridin-3-yl)-1,2-oxazolidine-2-carbonyl]piperidin-1-yl]pyrimidin-4-yl]pyrrolidin-2-one] | > 1140 | 18
O=C1CCCCN1c1ccnc(N2CCC(C(=O)N3OCC[C@H]3c3cnccn3)CC2)n1 [Example 47, 1-[2-[4-[(3S)-3-pyrazin-2-yl-1,2-oxazolidine-2-carbonyl]piperidin-1-yl]pyrimidin-4-yl]piperidin-2-one] | > 1140 | 71
Cc1ncc([C@@H]2CCON2C(=O)[C@@H]2CCN(c3ncnc(-c4ccnn4C)n3)CC23CC3)cc1F [Example 48, [(3S)-3-(5-fluoro-6-methylpyridin-3-yl)-1,2-oxazolidin-2-yl]-[(8R)-5-[4-(2-methylpyrazol-3-yl)-1,3,5-triazin-2-yl]-5-azaspiro[2.5]octan-8-yl]methanone] | 231 (≈ 111 µg/mL) | 3
Cc1cncc([C@@H]2CCON2C(=O)C2CCN(c3nccc(N4CCCC4=O)n3)CC2)c1 [Example 50, 1-[2-[4-[(3S)-3-(5-methylpyridin-3-yl)-1,2-oxazolidine-2-carbonyl]piperidin-1-yl]pyrimidin-4-yl]pyrrolidin-2-one] | > 1150 | 33
Cc1nc([C@@H]2CCON2C(=O)C2CCN(c3nccc(N4CCC5(CC5)C4=O)n3)CC2)cs1 [Example 52, 5-[2-[4-[(3S)-3-(2-methyl-1,3-thiazol-4-yl)-1,2-oxazolidine-2-carbonyl]piperidin-1-yl]pyrimidin-4-yl]-5-azaspiro[2.4]heptan-4-one] | 321 (≈ 151 µg/mL) | 24
Cc1ncc([C@@H]2CCON2C(=O)C2CCN(c3nccc(N4CCCC4=O)n3)CC2)cc1F [Example 56, 1-[2-[4-[(3S)-3-(5-fluoro-6-methylpyridin-3-yl)-1,2-oxazolidine-2-carbonyl]piperidin-1-yl]pyrimidin-4-yl]pyrrolidin-2-one] | > 1100 | 21
O=C(C1CCN(c2nccc(N3CCCC4(CC4)C3=O)n2)CC1)N1OCC[C@H]1c1cnccn1 [Example 57, 5-[2-[4-[(3S)-3-pyrazin-2-yl-1,2-oxazolidine-2-carbonyl]piperidin-1-yl]pyrimidin-4-yl]-5-azaspiro[2.5]octan-4-one] | > 1080 | 59
Cc1nc([C@@H]2CCON2C(=O)C2CCN(c3nccc(N4CCC(F)(F)C4=O)n3)CC2)cs1 [Example 59, 3,3-difluoro-1-[2-[4-[(3S)-3-(2-methyl-1,3-thiazol-4-yl)-1,2-oxazolidine-2-carbonyl]piperidin-1-yl]pyrimidin-4-yl]pyrrolidin-2-one] | 217 (≈ 104 µg/mL) | 80
Cc1ncc([C@@H]2CCON2C(=O)C2CCN(c3nccc(N4CCOC4=O)n3)CC2)cc1F [Example 65, 3-[2-[4-[(3S)-3-(5-fluoro-6-methylpyridin-3-yl)-1,2-oxazolidine-2-carbonyl]piperidin-1-yl]pyrimidin-4-yl]-1,3-oxazolidin-2-one] | 209 (≈ 95.5 µg/mL) | 6
Cc1ccc([C@@H]2CCON2C(=O)[C@@H]2CCN(c3ncnc(-c4ccnn4C)n3)CC23CC3)cn1 [Example 69, [(8R)-5-[4-(2-methylpyrazol-3-yl)-1,3,5-triazin-2-yl]-5-azaspiro[2.5]octan-8-yl]-[(3S)-3-(6-methylpyridin-3-yl)-1,2-oxazolidin-2-yl]methanone] | 601 (≈ 277 µg/mL) | 9
O=C1CCCN1c1nccc(N2CCC(C(=O)N3OCC[C@H]3c3cncc(F)c3)CC2)n1 [Example 71, 1-[4-[4-[(3S)-3-(5-fluoropyridin-3-yl)-1,2-oxazolidine-2-carbonyl]piperidin-1-yl]pyrimidin-2-yl]pyrrolidin-2-one] | > 1140 | 2340
O=C(C1CCN(c2nccc(N3CCC(F)(F)C3=O)n2)CC1)N1OCC[C@H]1c1cncc(F)c1 [Example 75, 3,3-difluoro-1-[2-[4-[(3S)-3-(5-fluoropyridin-3-yl)-1,2-oxazolidine-2-carbonyl]piperidin-1-yl]pyrimidin-4-yl]pyrrolidin-2-one] | 98.4 (≈ 46.9 µg/mL) | 58
Cc1ccc([C@@H]2CCON2C(=O)C2CCN(c3ncc(F)c(-n4ccnc4C)n3)CC2)cn1 [Example 77, [1-[5-fluoro-4-(2-methylimidazol-1-yl)pyrimidin-2-yl]piperidin-4-yl]-[(3S)-3-(6-methylpyridin-3-yl)-1,2-oxazolidin-2-yl]methanone] | > 1110 | 1
Cc1ccc([C@@H]2CCON2C(=O)C2CCN(c3nccc(N4CCCC4=O)n3)CC2)cn1 [Example 81, 1-[2-[4-[(3S)-3-(6-methylpyridin-3-yl)-1,2-oxazolidine-2-carbonyl]piperidin-1-yl]pyrimidin-4-yl]pyrrolidin-2-one] | > 1150 | 52
